Measured values as given in paper PMC8745369, “Discovery of 2,4-thiazolidinedione-tethered coumarins as novel selective inhibitors for carbonic anhydrase IX and XII isoforms” (Journal of Enzyme Inhibition and Medicinal Chemistry, 2022).
Read-outs that look alike come from different tables or passages of the source.

Experiments:
[1] = target: hCA I (Homo sapiens, UniProt P00915); experiment: Stopped flow CO2 hydrase assay, hCA I inhibition; format: biochemical
[2] = target: hCA II (Homo sapiens, UniProt P00918); experiment: Stopped flow CO2 hydrase assay, hCA II inhibition; format: biochemical; settings: stopped flow technique; incubation time of 6 h; mean from 3 different assays; read-out: KI CA II
[3] = target: hCA IX (Homo sapiens, UniProt Q16790); experiment: Stopped flow CO2 hydrase assay, hCA IX inhibition; format: biochemical; settings: stopped flow technique; incubation time of 6 h; mean from 3 different assays; read-out: KI CA IX
[4] = target: hCA XII (Homo sapiens, UniProt O43570); experiment: Stopped flow CO2 hydrase assay, hCA XII inhibition; format: biochemical; settings: for Ki: stopped flow technique, incubation time of 6 h, mean from 3 different assays, read-out: KI CA XII
Sequence of hCA XII (O43570 25-354): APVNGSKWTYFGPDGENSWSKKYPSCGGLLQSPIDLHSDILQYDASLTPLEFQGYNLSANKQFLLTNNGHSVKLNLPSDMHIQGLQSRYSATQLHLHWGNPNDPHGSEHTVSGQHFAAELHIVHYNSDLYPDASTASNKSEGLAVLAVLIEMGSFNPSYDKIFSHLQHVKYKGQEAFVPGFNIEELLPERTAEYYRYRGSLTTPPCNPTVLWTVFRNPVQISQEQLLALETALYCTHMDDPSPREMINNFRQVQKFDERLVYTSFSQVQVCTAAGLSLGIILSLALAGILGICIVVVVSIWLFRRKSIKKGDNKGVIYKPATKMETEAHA

[5] = tested on: MCF-7 breast cancer cell line; experiment: MTT antiproliferative assay under hypoxic conditions; format: cell-based; settings: Homo sapiens, MCF7, hypoxic conditions (CoCl2), 48 h exposure, mean ± SD of three experiments
Procedure: 2. Anti-proliferative action toward human breast cell line
The examined human breast cancer cell line (MCF-7) has been obtained from American Type Culture Collection (ATCC). Cells line was maintained as monolayers in Dulbecco’s Modified Eagle’s Medium (DMEM) supplemented with 10% FBS, 2 mM L-glutamine, 100 U/ml penicillin and 100µg/ml streptomycin sulfate. Cobalt (II) chloride (CoCl2) was utilized as an inducer of HIF-1α to furnish a chemically-induced hypoxia. Cells were sub-cultured with trypsine /EDTA solution, counted with haemocytometer and plated onto 96-well plates (5000 cells/well) and left overnight to form a semi-confluent monolayer. Cell monolayers were treated in quadrates with […]
for an exposure time of 48 h. At the end of exposure, MTT solution in PBS (5 mg/ml) was then added to all well including no cell blank and left to incubate for 90 min. The formation of formazan crystals were visually confirmed using phase contract microscopy. DMSO (100 µl/well) was added to dissolve the formazan crystals with shaking for 10 min after which the absorbance was read at […]

[6] = tested on: MCF-7 breast cancer cells; experiment: Annexin V-FITC/propidium iodide apoptosis assay; format: cell-based, human; settings: treatment at IC50
Source text: […]. This represents 57 folds total increase relative to the control in apoptotic cells.
IC50 values (concentration of sample
4. Annexin V-FITC Apoptosis Assay
Cells were then rinsed in binding

[7] = tested on: MCF-7 breast cancer cells; experiment: Cell cycle analysis by flow cytometry
[8] = stopped flow technique, incubation time of 6 h, mean from 3 different assays, read-out: KI CA I

Sequence of hCA I (P00915 whole entry): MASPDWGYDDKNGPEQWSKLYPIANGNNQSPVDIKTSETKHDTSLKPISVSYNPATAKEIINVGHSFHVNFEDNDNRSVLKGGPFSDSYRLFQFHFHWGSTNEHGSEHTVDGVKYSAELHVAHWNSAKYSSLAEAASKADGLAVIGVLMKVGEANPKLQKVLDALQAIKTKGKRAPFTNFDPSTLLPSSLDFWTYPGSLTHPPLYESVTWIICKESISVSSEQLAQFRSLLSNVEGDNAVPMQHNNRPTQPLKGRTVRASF

| SMILES | Ki [1, 8] [µM] | Ki [2] [µM] | Ki [3] [µM] | Ki [4] [µM] | diminished inhibition for hCA XII relative to the unsubstituted analogue 5a ([4]; ratio of KI values) [fold] | melting point [°C] | IC50 [5] [µM] | Ki [1] [µM] | Apoptosis Total ([6]; MCF-7, AV-FITC/PI positive stained cells) [%] | Apoptosis Early ([6]; MCF-7, AV-FITC/PI, lower right quadrant) [%] | total increase in apoptotic cells relative to the control ([6]; MCF-7, AV-FITC/PI) [folds] | Necrosis ([6]; MCF-7, AV-FITC/PI, upper left quadrant) [%] | Apoptosis Late ([6]; MCF-7, AV-FITC/PI, upper right quadrant) [%] | decrease in G2-M phase compared to the control [7] [folds] | increase of cell population at Sub-G1 compared to the control [7] [folds] |
| --- | --- | --- | --- | --- | --- | --- | --- | --- | --- | --- | --- | --- | --- | --- | --- |
| O=C(CN1C(=O)CSC1=O)c1cc2cc(Br)ccc2oc1=O [5b, 3–(2-(6-Bromo-2-oxo-2H-chromen-3-yl)-2-oxoethyl)thiazolidine-2,4-dione] | > 100 | > 100 | 0.24 | 0.31 | 2 | 239 to 241 |  |  |  |  |  |  |  |  |  |
| COc1ccc(C=C2SC(=O)N(CC(=O)c3cc4ccccc4oc3=O)C2=O)cc1 [10c, 5–(4-Methoxybenzylidene)-3–(2-oxo-2–(2-oxo-2H-chromen-3-yl)ethyl)thiazolidine-2,4-dione] | > 100 | > 100 | 5.8 | 4.5 |  | 257 to 259 |  |  |  |  |  |  |  |  |  |
| COc1ccc(OC)c(C=C2SC(=O)N(CC(=O)c3cc4ccccc4oc3=O)C2=O)c1 [10d, 5–(2,5-Dimethoxybenzylidene)-3–(2-oxo-2–(2-oxo-2H-chromen-3-yl)ethyl)thiazolidine-2,4-dione] | > 100 | > 100 | 8.4 | 6.2 |  | 238 to 240 |  |  |  |  |  |  |  |  |  |
| O=C(CN1C(=O)SC(=Cc2ccc([N+](=O)[O-])cc2)C1=O)c1cc2ccccc2oc1=O [10e, 5–(4-Nitrobenzylidene)-3–(2-oxo-2–(2-oxo-2H-chromen-3-yl)ethyl)thiazolidine-2,4-dione] | > 100 | > 100 | 12.3 | 8 |  | 263 to 265 |  |  |  |  |  |  |  |  |  |
| O=C(CN1C(=O)SC(=Cc2ccc([N+](=O)[O-])cc2)C1=O)c1cc2cc(Br)ccc2oc1=O [10l, 3–(2-(6-Bromo-2-oxo-2H-chromen-3-yl)-2-oxoethyl)-5–(4-nitrobenzylidene)thiazolidine-2,4-dione] | > 100 | > 100 | 18.2 | 10.4 |  | 229 to 231 |  |  |  |  |  |  |  |  |  |
| O=C(CN1C(=O)SC(=Cc2ccccc2Cl)C1=O)c1cc2cc(Br)ccc2oc1=O [10m, 3–(2-(6-Bromo-2-oxo-2H-chromen-3-yl)-2-oxoethyl)-5–(2-chlorobenzylidene)thiazolidine-2,4-dione] | > 100 | > 100 | 2.9 | 3.2 |  | 192 to 194 |  |  |  |  |  |  |  |  |  |
| O=C(CN1C(=O)SC(=Cc2cccs2)C1=O)c1cc2ccccc2oc1=O [11a, 3–(2-Oxo-2–(2-oxo-2H-chromen-3-yl)ethyl)-5-(thiophen-2-ylmethylene)thiazolidine-2,4-dione] |  |  |  |  |  |  |  | > 100 | 29.93 | 4.23 | 57 | 17.39 | 25.7 | 2.6 | 19.7 |
| O=C(CN1C(=O)SC(=Cc2cccs2)C1=O)c1cc2cc(Br)ccc2oc1=O [11c, 3–(2-(6-Bromo-2-oxo-2H-chromen-3-yl)-2-oxoethyl)-5-(thiophen-2-ylmethylene)thiazolidine-2,4-dione] | > 100 | > 100 | 0.59 | 0.44 |  | 255 to 257 | 9.56 ± 0.56 |  |  |  |  |  |  |  |  |

The next lines start with results.

| Ki [1, 8] [µM] | Ki [2] [µM] | Ki [3] [µM] | Ki [4] [µM] | diminished inhibition for hCA XII relative to the unsubstituted analogue 5a ([4]; ratio of KI values) [fold] | melting point [°C] | IC50 [5] [µM] | SMILES | Ki [1] [µM] | Apoptosis Total ([6]; MCF-7, AV-FITC/PI positive stained cells) [%] | Apoptosis Early ([6]; MCF-7, AV-FITC/PI, lower right quadrant) [%] | total increase in apoptotic cells relative to the control ([6]; MCF-7, AV-FITC/PI) [folds] | Necrosis ([6]; MCF-7, AV-FITC/PI, upper left quadrant) [%] | Apoptosis Late ([6]; MCF-7, AV-FITC/PI, upper right quadrant) [%] | decrease in G2-M phase compared to the control [7] [folds] | increase of cell population at Sub-G1 compared to the control [7] [folds] |
| --- | --- | --- | --- | --- | --- | --- | --- | --- | --- | --- | --- | --- | --- | --- | --- |
| > 100 | > 100 | 0.12 | 0.15 |  |  |  | O=C(CN1C(=O)CSC1=O)c1cc2ccccc2oc1=O [5a, 3–(2-Oxo-2–(2-oxo-2H-chromen-3-yl)ethyl)thiazolidine-2,4-dione] |  |  |  |  |  |  |  |  |
| > 100 | > 100 | 0.82 | 0.75 |  | 249 to 251 | 3.13 ± 0.18 | O=C(CN1C(=O)SC(=Cc2ccccc2)C1=O)c1cc2ccccc2oc1=O [10a, 5-Benzylidene-3–(2-oxo-2–(2-oxo-2H-chromen-3-yl)ethyl)thiazolidine-2,4-dione] |  |  |  |  |  |  |  |  |
| > 100 | > 100 | 4.3 | 4 |  | 227 to 229 |  | Cc1ccc(C=C2SC(=O)N(CC(=O)c3cc4ccccc4oc3=O)C2=O)cc1 [10b, 5–(4-Methylbenzylidene)-3–(2-oxo-2–(2-oxo-2H-chromen-3-yl)ethyl)thiazolidine-2,4-dione] |  |  |  |  |  |  |  |  |
| > 100 | > 100 | 2.2 | 3.8 |  | 208 to 211 |  | O=C(CN1C(=O)SC(=Cc2ccccc2Cl)C1=O)c1cc2ccccc2oc1=O [10f, 5–(2-Chlorobenzylidene)-3–(2-oxo-2–(2-oxo-2H-chromen-3-yl)ethyl)thiazolidine-2,4-dione] |  |  |  |  |  |  |  |  |
| > 100 | > 100 | 2.3 | 4.1 |  | 230 to 232 |  | O=C(CN1C(=O)SC(=Cc2ccccc2Br)C1=O)c1cc2ccccc2oc1=O [10g, 5–(2-Bromobenzylidene)-3–(2-oxo-2–(2-oxo-2H-chromen-3-yl)ethyl)thiazolidine-2,4-dione] |  |  |  |  |  |  |  |  |
| > 100 | > 100 | 0.93 | 0.87 |  | 252 to 254 | 11.1 ± 0.65 | O=C(CN1C(=O)SC(=Cc2ccccc2)C1=O)c1cc2cc(Br)ccc2oc1=O [10h, 5-Benzylidene-3–(2-(6-bromo-2-oxo-2H-chromen-3-yl)-2-oxoethyl)thiazolidine-2,4-dione] |  |  |  |  |  |  |  |  |
| > 100 | > 100 | 6.2 | 2.3 |  | 224 to 225 |  | Cc1ccc(C=C2SC(=O)N(CC(=O)c3cc4cc(Br)ccc4oc3=O)C2=O)cc1 [10i, 3–(2-(6-Bromo-2-oxo-2H-chromen-3-yl)-2-oxoethyl)-5–(4-methylbenzylidene)thiazolidine-2,4-dione] |  |  |  |  |  |  |  |  |
| > 100 | > 100 | 8.9 | 4.9 |  | 245 to 247 |  | COc1ccc(C=C2SC(=O)N(CC(=O)c3cc4cc(Br)ccc4oc3=O)C2=O)cc1 [10j, 3–(2-(6-Bromo-2-oxo-2H-chromen-3-yl)-2-oxoethyl)-5–(4-methoxybenzylidene)thiazolidine-2,4-dione] |  |  |  |  |  |  |  |  |
| > 100 | > 100 | 16.4 | 6.6 |  | 204 to 206 |  | COc1ccc(OC)c(C=C2SC(=O)N(CC(=O)c3cc4cc(Br)ccc4oc3=O)C2=O)c1 [10k, 3–(2-(6-Bromo-2-oxo-2H-chromen-3-yl)-2-oxoethyl)-5–(2,5-dimethoxybenzylidene) thiazolidine-2,4-dione] |  |  |  |  |  |  |  |  |
| > 100 | > 100 | 3.4 | 2.8 |  | 208 to 210 |  | O=C(CN1C(=O)SC(=Cc2ccccc2Br)C1=O)c1cc2cc(Br)ccc2oc1=O [10n, 3–(2-(6-Bromo-2-oxo-2H-chromen-3-yl)-2-oxoethyl)-5–(2-bromobenzylidene)thiazolidine-2,4-dione] |  |  |  |  |  |  |  |  |
| > 100 | > 100 | 0.79 | 1.1 |  | 227 to 229 | 4.14 ± 0.24 | Cc1ccc(C=C2SC(=O)N(CC(=O)c3cc4ccccc4oc3=O)C2=O)o1 [11b, 5-((5-Methylfuran-2-yl)methylene)-3–(2-oxo-2–(2-oxo-2H-chromen-3-yl)ethyl)thiazolidine-2,4-dione] |  |  |  |  |  |  |  |  |
| > 100 | > 100 | 0.91 | 0.82 |  | 236 to 238 | 1.65 ± 0.1 | Cc1ccc(C=C2SC(=O)N(CC(=O)c3cc4cc(Br)ccc4oc3=O)C2=O)o1 [11d, 3–(2-(6-Bromo-2-oxo-2H-chromen-3-yl)-2-oxoethyl)-5-((5-methylfuran-2-yl)methylene)thiazolidine-2,4-dione] |  |  |  |  |  |  |  |  |
